{"source": "patent US20240226086A1", "about": "“LIQUID PHARMACEUTICAL FORMULATIONS OF QUINOLINES” (TaP Pharmaceuticals, AG, priority 2022, published 2024)", "key": {"[1]": {"experiment": "HCQ sulfate solubility in liquid glycerol formulations, HPLC assay for HCQ", "type": "physicochemical", "conditions": "dissolution protocol of Example 1", "method": "Liquid HCQ formulations. […] Step 1: 63 g of glycerol were weighed and transferred into a 50 ml beaker with magnetic stir bar and heated to 70° C. while stirred. Step 2: 10 g HCQ sulfate were weighed and slowly added to the 70° C. glycerol of Step 1 with continued stirring and with maintenance of 70° C. until a clear liquid solution was formed. Step 3: 10 g HCQ sulfate was weighed and slowly added to resultant clear liquid solution of Step 3 with continued stirring and with maintenance of 70° C. until a clear liquid solution was formed. Step 4: the resultant clear liquid solution of Step 4 was cooled to room temperature.\nHPLC steps. Step 1. […] The chromatogram was recorded and used to identify any peak eluting at the retention time of major peaks. […] The chromatogram was recorded and used to identify the HCQ peak and calculate its signal to noise ratio. […] The chromatogram was recorded and used to identify HCQ and HCQ-n-oxide peaks and the resolution between those peaks was calculated. […] The chromatograms were recorded and used to calculate the average and % RSD for the HCQ peak area responses obtained from the six replicate injections of standard solution. The tailing factor was determined. […] The chromatograms were recorded and used to calculate average peak area responses of the HCQ obtained from the two replicate injections of standard check solution. The similarity factor was calculated. […]"}, "[2]": {"conditions": "cited from earlier work"}}, "note": "Structures can show the parent of a compound that is named as a salt. Where two headings read alike, the source gives them in different places.", "data": [{"molecule": "CCN(CCO)CCCC(C)Nc1ccnc2cc(Cl)ccc12", "note": "(centres unmarked) [HCQ, 2-[[4-[(7-Chloro-4-quinolyl)amino]pentyl]ethylamino] ethanol sulfate (1:1)]", "values": [{"measurement": "HCQ dissolved in glycerol", "setting": "[1]", "result": 273, "unit": "mg/mL"}, {"measurement": "Solubility, Inference as USP", "setting": "[2]; solvent Alcohol", "result": "Practically insoluble or slightly soluble"}, {"measurement": "Solubility, Inference as USP", "setting": "[2]; solvent Chloroform", "result": "Practically insoluble or slightly soluble"}, {"measurement": "Solubility, Inference as USP", "setting": "[2]; solvent Dimethylformamide", "result": "Sparingly soluble (10-33)"}, {"measurement": "Solubility, Inference as USP", "setting": "[2]; solvent Dimethylsulfoxide", "result": "Insoluble or sparingly soluble"}, {"measurement": "Solubility, Inference as USP", "setting": "[2]; solvent Ethanol", "result": "Sparingly soluble or insoluble"}, {"measurement": "Solubility, Inference as USP", "setting": "[2]; solvent Ether", "result": "Practically insoluble or very slightly soluble"}, {"measurement": "Solubility, Inference as USP", "setting": "[2]; solvent Glycerol", "result": "Very slightly soluble (0.1-1)"}]}]}
